Experimental data published in PubChem BioAssay AID248 (DTP/NCI, 2004).
Several values for one entry are separate records, joined by “and”; a condition that tells them apart may be missing. Identical values can stand only once. Inconclusive results and toxic doses are left out.

System: L1210 leukemia ip in BDF1 mice, survival T/C
Test: NCI In Vivo Anticancer Drug Screen. Data for tumor model L1210 Leukemia (intraperitoneal) in B6D2F1 (BDF1) mice
Details: endpoint: mean survival time, higher = longer survival
How it was run: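 In this screen, tumor-bearing mice given compound are compared to those given vehicle, and their survival values are reported as a treated-to-control quotient.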

[1] = dose: 100.0 mg/kg/injection, schedule: Q04DX003 (ip), vehicle: Klucel (hydroxypropylcellulose) (HPC)
[2] = dose: 100.0 mg/kg/injection, schedule: Q01DX009 (ip), vehicle: saline with Tween-80
[3] = dose: 200.0 mg/kg/injection, schedule: Q01DX009 (ip), vehicle: saline with Tween-80
[4] = dose: 400.0 mg/kg/injection, schedule: Q01DX009 (ip), vehicle: saline with Tween-80
[5] = dose: 100.0 mg/kg/injection, schedule: Q01DX009 (ip), vehicle: saline
[6] = dose: 100.0 mg/kg/injection, schedule: Q04DX003 (ip), vehicle: saline
[7] = dose: 50.0 mg/kg/injection, schedule: Q01DX009 (ip), vehicle: saline

SMILES: CC[C@@]1(O)C(=O)OCc2c1cc1n(c2=O)Cc2cc3cc(O)ccc3nc2-1
- T/C (dose: 0.15 mg/kg/injection, schedule: Q01DX015 (ip), vehicle: saline): 151 % of control
- T/C (dose: 0.22 mg/kg/injection, schedule: Q01DX015 (ip), vehicle: saline): 157 % of control
- T/C (dose: 0.34 mg/kg/injection, schedule: Q01DX015 (ip), vehicle: saline): 165 % of control
- T/C (dose: 0.51 mg/kg/injection, schedule: Q01DX015 (ip), vehicle: saline): 233 % of control
- T/C (dose: 0.77 mg/kg/injection, schedule: Q01DX015 (ip), vehicle: saline): 157 % of control
- T/C (dose: 1.0 mg/kg/injection, schedule: Q01DX009 (ip), vehicle: saline): 185 % of control
- T/C (dose: 1.16 mg/kg/injection, schedule: Q01DX015 (ip), vehicle: saline): 161 % of control
- T/C (dose: 1.75 mg/kg/injection, schedule: Q01DX015 (ip), vehicle: saline): 177 % of control
- T/C (dose: 2.0 mg/kg/injection, schedule: Q01DX001 (ip), vehicle: saline): 111 % of control
- T/C (dose: 2.0 mg/kg/injection, schedule: Q01DX009 (ip), vehicle: saline): 229 % of control
- T/C (dose: 2.0 mg/kg/injection, schedule: Q01DX009 (oral), vehicle: saline): 105 % of control and 108 % of control
- T/C (dose: 3.0 mg/kg/injection, schedule: Q01DX009 (oral), vehicle: saline): 114 % of control and 115 % of control
- T/C (dose: 4.0 mg/kg/injection, schedule: Q01DX001 (ip), vehicle: saline): 164 % of control
- T/C (dose: 7.0 mg/kg/injection, schedule: Q01DX009 (oral), vehicle: saline): 101 % of control and 120 % of control
- T/C (dose: 8.0 mg/kg/injection, schedule: Q01DX001 (ip), vehicle: saline): 242 % of control
- T/C (dose: 10.0 mg/kg/injection, schedule: Q01DX009 (oral), vehicle: saline): 121 % of control
- T/C (dose: 15.0 mg/kg/injection, schedule: Q01DX009 (oral), vehicle: saline): 115 % of control
- T/C (dose: 16.0 mg/kg/injection, schedule: Q01DX001 (ip), vehicle: saline): 88 % of control
- T/C (dose: 12.0 micrograms/kg/injection, schedule: Q01DX015 (ip), vehicle: saline): 113 % of control
- T/C (dose: 19.0 micrograms/kg/injection, schedule: Q01DX015 (ip), vehicle: saline): 111 % of control
- T/C (dose: 29.0 micrograms/kg/injection, schedule: Q01DX015 (ip), vehicle: saline): 118 % of control
- T/C (dose: 44.0 micrograms/kg/injection, schedule: Q01DX015 (ip), vehicle: saline): 120 % of control
- T/C (dose: 100.0 micrograms/kg/injection, schedule: Q01DX015 (ip), vehicle: saline): 150 % of control

SMILES: C1=CC2CC1C1CSCC21 (stereo unspecified)
- T/C (dose: 0.34 mg/kg/injection, schedule: Q01DX009 (ip), vehicle: saline): 102 % of control
- T/C (dose: 0.51 mg/kg/injection, schedule: Q01DX009 (ip), vehicle: saline): 107 % of control
- T/C (dose: 0.78 mg/kg/injection, schedule: Q01DX009 (ip), vehicle: saline): 98 % of control
- T/C (dose: 1.56 mg/kg/injection, schedule: Q04DX003 (ip), vehicle: saline): 97 % of control
- T/C (dose: 3.12 mg/kg/injection, schedule: Q04DX003 (ip), vehicle: saline): 94 % of control

SMILES: [O-][n+]1onc2ncccc21
- T/C (dose: 25.0 mg/kg/injection, schedule: Q04DX003 (ip), vehicle: Klucel (hydroxypropylcellulose) (HPC)): 108 % of control
- T/C (dose: 50.0 mg/kg/injection, schedule: Q04DX003 (ip), vehicle: Klucel (hydroxypropylcellulose) (HPC)): 94 % of control
- T/C [1]: 100 % of control and 102 % of control

SMILES: O=C(O)c1ccccc1Nc1ccccc1
- T/C (dose: 100.0 mg/kg/injection, schedule: Q01DX001 (ip), vehicle: Klucel (hydroxypropylcellulose) (HPC)): 102 % of control
- T/C (dose: 200.0 mg/kg/injection, schedule: Q01DX001 (ip), vehicle: Klucel (hydroxypropylcellulose) (HPC)): 102 % of control
- T/C (dose: 400.0 mg/kg/injection, schedule: Q01DX001 (ip), vehicle: Klucel (hydroxypropylcellulose) (HPC)): 97 % of control

SMILES: CC(C(=O)c1ccccc1)C(O)(C(F)(F)Cl)C(F)(F)Cl (stereo unspecified)
- T/C [1]: 91 % of control
- T/C (dose: 200.0 mg/kg/injection, schedule: Q04DX003 (ip), vehicle: Klucel (hydroxypropylcellulose) (HPC)): 91 % of control
- T/C (dose: 400.0 mg/kg/injection, schedule: Q04DX003 (ip), vehicle: Klucel (hydroxypropylcellulose) (HPC)): 91 % of control

SMILES: CC(=O)C(C)(CCC(=O)NC(C)(C)C)CCC(=O)NC(C)(C)C
- T/C [2]: 94 % of control
- T/C (dose: 100.0 mg/kg/injection, schedule: Q04DX003 (ip), vehicle: saline with Tween-80): 95 % of control
- T/C [3]: 100 % of control
- T/C (dose: 200.0 mg/kg/injection, schedule: Q04DX003 (ip), vehicle: saline with Tween-80): 95 % of control
- T/C [4]: 93 % of control
- T/C (dose: 400.0 mg/kg/injection, schedule: Q04DX003 (ip), vehicle: saline with Tween-80): 93 % of control

SMILES: O=C(/C=C\c1ccccc1)Nc1c(Cl)cc(Cl)cc1Cl
- T/C (dose: 100.0 mg/kg/injection, schedule: Q04DX002 (ip), vehicle: Klucel (hydroxypropylcellulose) (HPC)): 91 % of control
- T/C (dose: 200.0 mg/kg/injection, schedule: Q04DX002 (ip), vehicle: Klucel (hydroxypropylcellulose) (HPC)): 107 % of control
- T/C (dose: 400.0 mg/kg/injection, schedule: Q04DX002 (ip), vehicle: Klucel (hydroxypropylcellulose) (HPC)): 95 % of control

SMILES: CC1CC2C(CC1O)C2(C)C (stereo unspecified)
- T/C [5]: 97 % of control
- T/C [6]: 94 % of control
- T/C (dose: 200.0 mg/kg/injection, schedule: Q01DX009 (ip), vehicle: saline): 101 % of control
- T/C (dose: 200.0 mg/kg/injection, schedule: Q04DX003 (ip), vehicle: saline): 94 % of control
- T/C (dose: 400.0 mg/kg/injection, schedule: Q01DX009 (ip), vehicle: saline): 106 % of control
- T/C (dose: 400.0 mg/kg/injection, schedule: Q04DX003 (ip), vehicle: saline): 91 % of control

SMILES: O=C(c1ccccc1)C(c1ccccc1)C(C[N+](=O)[O-])c1ccccc1 (stereo unspecified)
- T/C [2]: 88 % of control
- T/C [3]: 90 % of control
- T/C [4]: 96 % of control

SMILES: Cc1ccc(NC(=O)N(CCCl)N=O)cc1
- T/C (dose: 0.5 mg/kg/injection, schedule: Q01DX015 (ip), vehicle: carboxymethylcellulose (CMC)): 103 % of control
- T/C (dose: 1.0 mg/kg/injection, schedule: Q01DX015 (ip), vehicle: carboxymethylcellulose (CMC)): 107 % of control
- T/C (dose: 5.2 mg/kg/injection, schedule: Q01DX015 (ip), vehicle: carboxymethylcellulose (CMC)): 169 % of control
- T/C (dose: 9.0 mg/kg/injection, schedule: Q01DX015 (ip), vehicle: carboxymethylcellulose (CMC)): 165 % of control
- T/C (dose: 15.0 mg/kg/injection, schedule: Q01DX015 (ip), vehicle: carboxymethylcellulose (CMC)): 206 % of control
- T/C (dose: 22.0 mg/kg/injection, schedule: Q01DX001 (ip), vehicle: carboxymethylcellulose (CMC)): 161 % of control
- T/C (dose: 25.0 mg/kg/injection, schedule: Q01DX015 (ip), vehicle: carboxymethylcellulose (CMC)): 152 % of control
- T/C (dose: 33.0 mg/kg/injection, schedule: Q01DX001 (ip), vehicle: carboxymethylcellulose (CMC)): 152 % of control
- T/C (dose: 50.0 mg/kg/injection, schedule: Q01DX001 (ip), vehicle: carboxymethylcellulose (CMC)): 171 % of control and 197 % of control
- T/C (dose: 75.0 mg/kg/injection, schedule: Q01DX001 (ip), vehicle: carboxymethylcellulose (CMC)): 118 % of control
- T/C (dose: 100.0 mg/kg/injection, schedule: Q01DX001 (ip), vehicle: carboxymethylcellulose (CMC)): 86 % of control

SMILES: CN(C)CCCn1c2ccccc2c2cnccc21
- T/C [7]: 100 % of control
- T/C [5]: 89 % of control
- T/C [6]: 97 % of control

SMILES: CCCCOCCC1CCNCC1
- T/C (dose: 12.5 mg/kg/injection, schedule: Q01DX009 (ip), vehicle: saline): 97 % of control
- T/C (dose: 12.5 mg/kg/injection, schedule: Q04DX003 (ip), vehicle: saline): 96 % of control
- T/C (dose: 25.0 mg/kg/injection, schedule: Q01DX009 (ip), vehicle: saline): 101 % of control
- T/C (dose: 25.0 mg/kg/injection, schedule: Q04DX003 (ip), vehicle: saline): 97 % of control
- T/C [7]: 101 % of control
- T/C (dose: 50.0 mg/kg/injection, schedule: Q04DX003 (ip), vehicle: saline): 100 % of control

SMILES: O=c1[nH]c2nccnc2[nH]1
- T/C (dose: 25.0 mg/kg/injection, schedule: Q01DX009 (ip), vehicle: water): 91 % of control
- T/C (dose: 50.0 mg/kg/injection, schedule: Q01DX009 (ip), vehicle: water): 107 % of control
- T/C (dose: 200.0 mg/kg/injection, schedule: Q01DX009 (ip), vehicle: water): 96 % of control

SMILES: COc1ccc(OC)c(/C=C/c2ccc3ccccc3[n+]2C)c1
- T/C (dose: 5.0 mg/kg/injection, schedule: Q04DX003 (ip), vehicle: saline with Tween-80): 110 % of control
- T/C (dose: 10.0 mg/kg/injection, schedule: Q04DX003 (ip), vehicle: saline with Tween-80): 111 % of control
- T/C (dose: 20.0 mg/kg/injection, schedule: Q04DX003 (ip), vehicle: saline with Tween-80): 117 % of control
